In brackets after ≈: the same amount, converted by molar mass.
Experiments:
Type in all cases: functional
Candida albicans [1] = test: Inhibitory activity against Candida albicans (40 clinical isolates), determined at pH-7.2
Candida [2] = test: Inhibitory activity against Candida. species (40 clinical isolates), determined at pH-5.8
Candida albicans [3] = test: 50% inhibitory activity against Candida albicans (40 clinical isolates) determined at pH-5.8
Candida albicans [4] = test: 50% inhibitory activity against Candida albicans (40 clinical isolates) determined at pH-7.2
Candida [5] = test: Resistance against all Candida. species (40 clinical isolates) at 256 micro g/mL (pH=5.8). Activity is expressed as R%.
Candida albicans [6] = test: Inhibitory activity against Candida albicans (40 clinical isolates), determined at pH-5.8
Candida albicans [7] = test: Inhibitory activity against the Candida albicans (40 clinical isolates), determined at pH-5.8
Candida [8] = test: Inhibitory activity against Candida. species. (40 clinical isolates), determined at pH-7.2
Candida [9] = test: Percent resistance against all Candida. species (40 clinical isolates) at 256 micro g/mL (pH=7.2), activity is expressed as R%.
Candida [10] = test: Inhibitory activity against Candida. species. (40 clinical isolates), determined at pH-5.8
Candida albicans [11] = test: Inhibitory activity against the Candida albicans (40 clinical isolates), determined at pH-7.2
Candida albicans [12] = test: Percent resistance against Candida albicans (40 clinical isolates) at 256 micro g/mL (pH=5.8), activity is expressed as R%.
Candida [13] = test: 50% inhibitory activity against the Candida. species (40 clinical isolates) was determined at pH-7.2
Candida albicans [14] = test: Resistance against Candida. albicans (40 clinical isolates) at 256 ug/mL (pH=7.2), activity is expressed as R%.
Candida [15] = test: 90% inhibitory activity against Candida. species (40 clinical isolates) determined at pH-7.2
[16] = Candida albicans, read-out: MIC50

Compound	MIC (Candida albicans [1])	MIC50 (Candida [2])	MIC90 (Candida [2])	MIC50 (Candida albicans [3])	MIC50 (Candida albicans [4]; [16])	R (Candida [5])	MIC (Candida albicans [6])	MIC90 (Candida albicans [7])	MIC (Candida [8])	R (Candida [9])	MIC (Candida [10])	MIC90 (Candida albicans [11])	R (Candida albicans [12])	MIC50 (Candida [13])	R (Candida albicans [14])	MIC90 (Candida [15])	MIC50 (Candida albicans [4])
Fc1ccc(C(c2c[nH]cc2-c2ccccc2Cl)n2ccnc2)cc1 (centres undefined)	36.5 µg/mL (≈ 104 µM)	64 µg/mL (≈ 182 µM)	64 µg/mL (≈ 182 µM)	32 µg/mL (≈ 91 µM)	32 µg/mL (≈ 91 µM)	0%	48.3 µg/mL (≈ 137 µM)	64 µg/mL (≈ 182 µM)	107 µg/mL (≈ 305 µM)	0%	71.1 µg/mL (≈ 202 µM)	64 µg/mL (≈ 182 µM)	0%	64 µg/mL (≈ 182 µM)	0%	256 µg/mL (≈ 728 µM)	–
Clc1ccc(-c2c[nH]cc2C(c2ccc(-n3cccc3)cc2)n2ccnc2)cc1 (centres undefined)	> 121 µg/mL	64 µg/mL (≈ 160 µM)	> 256 µg/mL	64 µg/mL (≈ 160 µM)	64 µg/mL (≈ 160 µM)	40%	> 119 µg/mL	256 µg/mL (≈ 642 µM)	> 229 µg/mL	50%	> 156 µg/mL	256 µg/mL (≈ 642 µM)	16%	256 µg/mL (≈ 642 µM)	20%	256 µg/mL (≈ 642 µM)	–
Clc1ccc(C(c2c[nH]cc2-c2ccccc2)n2ccnc2)c(Cl)c1 (centres undefined)	> 256 µg/mL	> 256 µg/mL	> 256 µg/mL	> 256 µg/mL	> 256 µg/mL	100%	> 256 µg/mL	> 256 µg/mL	> 256 µg/mL	100%	> 256 µg/mL	> 256 µg/mL	100%	> 256 µg/mL	100%	> 256 µg/mL	–
Clc1ccc(C(c2c[nH]cc2-c2ccc(Cl)cc2Cl)n2ccnc2)cc1 (centres undefined)	> 66.4 µg/mL	16 µg/mL (≈ 39.7 µM)	16 µg/mL (≈ 39.7 µM)	4 µg/mL (≈ 9.93 µM)	8 µg/mL (≈ 19.9 µM)	0%	> 6.8 µg/mL	256 µg/mL (≈ 636 µM)	> 212 µg/mL	40%	13.7 µg/mL (≈ 34 µM)	256 µg/mL (≈ 636 µM)	0%	64 µg/mL (≈ 159 µM)	5%	> 256 µg/mL	–
c1ccc(-c2c[nH]cc2C(c2ccc(-n3cccc3)cc2)n2ccnc2)cc1 (centres undefined)	37.3 µg/mL (≈ 102 µM)	32 µg/mL (≈ 87.8 µM)	64 µg/mL (≈ 176 µM)	16 µg/mL (≈ 43.9 µM)	16 µg/mL (≈ 43.9 µM)	0%	30.4 µg/mL (≈ 83.4 µM)	32 µg/mL (≈ 87.8 µM)	42.1 µg/mL (≈ 116 µM)	0%	40 µg/mL (≈ 110 µM)	32 µg/mL (≈ 87.8 µM)	0%	32 µg/mL (≈ 87.8 µM)	0%	64 µg/mL (≈ 176 µM)	–
Clc1ccc(C(c2c[nH]cc2-c2ccccc2)n2ccnc2)cc1Cl (centres undefined)	41.9 µg/mL (≈ 114 µM)	64 µg/mL (≈ 174 µM)	64 µg/mL (≈ 174 µM)	16 µg/mL (≈ 43.4 µM)	16 µg/mL (≈ 43.4 µM)	0%	38.6 µg/mL (≈ 105 µM)	64 µg/mL (≈ 174 µM)	191 µg/mL (≈ 519 µM)	20%	114 µg/mL (≈ 311 µM)	64 µg/mL (≈ 174 µM)	0%	128 µg/mL (≈ 348 µM)	0%	256 µg/mL (≈ 695 µM)	–
O=[N+]([O-])c1ccc(C(c2c[nH]cc2-c2ccc(Cl)c(Cl)c2)n2ccnc2)cc1 (centres undefined)	> 312 µg/mL	> 256 µg/mL	> 256 µg/mL	256 µg/mL (≈ 619 µM)	256 µg/mL (≈ 619 µM)	100%	> 283 µg/mL	> 256 µg/mL	> 256 µg/mL	100%	> 256 µg/mL	> 256 µg/mL	50%	> 256 µg/mL	50%	> 256 µg/mL	–
Clc1ccc(C(c2c[nH]cc2-c2ccccc2Cl)n2ccnc2)cc1 (centres undefined)	9.1 µg/mL (≈ 24.7 µM)	32 µg/mL (≈ 86.9 µM)	64 µg/mL (≈ 174 µM)	–	8 µg/mL (≈ 21.7 µM)	0%	18.7 µg/mL (≈ 50.8 µM)	32 µg/mL (≈ 86.9 µM)	15 µg/mL (≈ 40.7 µM)	0%	30.2 µg/mL (≈ 82 µM)	16 µg/mL (≈ 43.4 µM)	0%	16 µg/mL (≈ 43.4 µM)	0%	16 µg/mL (≈ 43.4 µM)	16 µg/mL (≈ 43.4 µM)
Nc1ccc(C(c2c[nH]cc2-c2ccc(Cl)cc2)n2ccnc2)cc1 (centres undefined)	98.2 µg/mL (≈ 282 µM)	82.5 µg/mL (≈ 237 µM)	82.5 µg/mL (≈ 237 µM)	32 µg/mL (≈ 91.7 µM)	64 µg/mL (≈ 183 µM)	0%	42.8 µg/mL (≈ 123 µM)	128 µg/mL (≈ 367 µM)	184 µg/mL (≈ 527 µM)	0%	82.5 µg/mL (≈ 237 µM)	128 µg/mL (≈ 367 µM)	0%	128 µg/mL (≈ 367 µM)	0%	128 µg/mL (≈ 367 µM)	–
Clc1ccc(-c2c[nH]cc2C(c2ccc(Cl)cc2Cl)n2ccnc2)cc1 (centres undefined)	3.6 µg/mL (≈ 8.94 µM)	16 µg/mL (≈ 39.7 µM)	32 µg/mL (≈ 79.5 µM)	2 µg/mL (≈ 4.97 µM)	2 µg/mL (≈ 4.97 µM)	0%	3.94 µg/mL (≈ 9.78 µM)	8 µg/mL (≈ 19.9 µM)	61 µg/mL (≈ 151 µM)	0%	14.4 µg/mL (≈ 35.8 µM)	8 µg/mL (≈ 19.9 µM)	0%	32 µg/mL (≈ 79.5 µM)	0%	128 µg/mL (≈ 318 µM)	–
Cc1ccc(C(c2c[nH]cc2-c2ccc(Cl)cc2Cl)n2ccnc2)cc1 (centres undefined)	13.1 µg/mL (≈ 34.3 µM)	16 µg/mL (≈ 41.9 µM)	32 µg/mL (≈ 83.7 µM)	8 µg/mL (≈ 20.9 µM)	8 µg/mL (≈ 20.9 µM)	0%	7.9 µg/mL (≈ 20.7 µM)	16 µg/mL (≈ 41.9 µM)	> 224 µg/mL	50%	16.4 µg/mL (≈ 42.9 µM)	16 µg/mL (≈ 41.9 µM)	0%	256 µg/mL (≈ 670 µM)	0%	> 256 µg/mL	–
Clc1ccc(-c2c[nH]cc2C(c2ccc(-n3cccc3)cc2)n2ccnc2)c(Cl)c1 (centres undefined)	> 256 µg/mL	16 µg/mL (≈ 36.9 µM)	32 µg/mL (≈ 73.8 µM)	16 µg/mL (≈ 36.9 µM)	> 256 µg/mL	0%	33.7 µg/mL (≈ 77.8 µM)	64 µg/mL (≈ 148 µM)	> 256 µg/mL	100%	19.5 µg/mL (≈ 45 µM)	> 256 µg/mL	0%	> 256 µg/mL	100%	> 256 µg/mL	–
Clc1ccccc1-c1c[nH]cc1C(c1ccccc1)n1ccnc1 (centres undefined)	19.2 µg/mL (≈ 57.5 µM)	64 µg/mL (≈ 192 µM)	32 µg/mL (≈ 95.9 µM)	–	16 µg/mL (≈ 47.9 µM)	0%	43.8 µg/mL (≈ 131 µM)	64 µg/mL (≈ 192 µM)	22.6 µg/mL (≈ 67.7 µM)	0%	78.2 µg/mL (≈ 234 µM)	32 µg/mL (≈ 95.9 µM)	0%	32 µg/mL (≈ 95.9 µM)	0%	64 µg/mL (≈ 192 µM)	32 µg/mL (≈ 95.9 µM)
Clc1ccc(C(c2c[nH]cc2-c2ccccc2Cl)n2ccnc2)c(Cl)c1 (centres undefined)	7.3 µg/mL (≈ 18.1 µM)	16 µg/mL (≈ 39.7 µM)	16 µg/mL (≈ 39.7 µM)	4 µg/mL (≈ 9.93 µM)	4 µg/mL (≈ 9.93 µM)	0%	5.19 µg/mL (≈ 12.9 µM)	16 µg/mL (≈ 39.7 µM)	21.8 µg/mL (≈ 54.1 µM)	0%	13.7 µg/mL (≈ 34 µM)	16 µg/mL (≈ 39.7 µM)	0%	32 µg/mL (≈ 79.5 µM)	0%	32 µg/mL (≈ 79.5 µM)	–
Clc1ccc(-c2c[nH]cc2C(c2ccccc2)n2ccnc2)cc1Cl (centres undefined)	> 10.9 µg/mL	16 µg/mL (≈ 43.4 µM)	32 µg/mL (≈ 86.9 µM)	8 µg/mL (≈ 21.7 µM)	6 µg/mL (≈ 16.3 µM)	0%	7.2 µg/mL (≈ 19.6 µM)	16 µg/mL (≈ 43.4 µM)	11.4 µg/mL (≈ 31 µM)	0%	19.1 µg/mL (≈ 51.9 µM)	16 µg/mL (≈ 43.4 µM)	0%	16 µg/mL (≈ 43.4 µM)	0%	16 µg/mL (≈ 43.4 µM)	–
Cc1ccc(C(c2c[nH]cc2-c2ccc(Cl)c(Cl)c2)n2ccnc2)cc1 (centres undefined)	5.8 µg/mL (≈ 15.2 µM)	16 µg/mL (≈ 41.9 µM)	16 µg/mL (≈ 41.9 µM)	4 µg/mL (≈ 10.5 µM)	4 µg/mL (≈ 10.5 µM)	0%	7.9 µg/mL (≈ 20.7 µM)	16 µg/mL (≈ 41.9 µM)	17.5 µg/mL (≈ 45.8 µM)	0%	14.2 µg/mL (≈ 37.1 µM)	16 µg/mL (≈ 41.9 µM)	0%	16 µg/mL (≈ 41.9 µM)	0%	32 µg/mL (≈ 83.7 µM)	–
Fc1ccc(C(c2c[nH]cc2-c2ccc(Cl)c(Cl)c2)n2ccnc2)cc1 (centres undefined)	7.2 µg/mL (≈ 18.6 µM)	16 µg/mL (≈ 41.4 µM)	32 µg/mL (≈ 82.8 µM)	4 µg/mL (≈ 10.4 µM)	4 µg/mL (≈ 10.4 µM)	0%	7.2 µg/mL (≈ 18.6 µM)	16 µg/mL (≈ 41.4 µM)	26.6 µg/mL (≈ 68.9 µM)	0%	16.4 µg/mL (≈ 42.5 µM)	16 µg/mL (≈ 41.4 µM)	0%	32 µg/mL (≈ 82.8 µM)	0%	32 µg/mL (≈ 82.8 µM)	–
Clc1ccc(-c2c[nH]cc2C(c2ccc(-n3cccc3)cc2)n2ccnc2)cc1Cl (centres undefined)	> 289 µg/mL	> 256 µg/mL	> 256 µg/mL	128 µg/mL (≈ 295 µM)	128 µg/mL (≈ 295 µM)	100%	> 264 µg/mL	> 256 µg/mL	> 438 µg/mL	80%	> 256 µg/mL	> 256 µg/mL	40%	> 256 µg/mL	50%	> 256 µg/mL	–
O=[N+]([O-])c1ccc(C(c2c[nH]cc2-c2ccc(Cl)cc2)n2ccnc2)cc1 (centres undefined)	> 91.8 µg/mL	> 256 µg/mL	> 256 µg/mL	16 µg/mL (≈ 42.2 µM)	32 µg/mL (≈ 84.5 µM)	60%	> 60.1 µg/mL	32 µg/mL (≈ 84.5 µM)	> 91.8 µg/mL	10%	> 355 µg/mL	64 µg/mL (≈ 169 µM)	0%	32 µg/mL (≈ 84.5 µM)	0%	64 µg/mL (≈ 169 µM)	–
